These results are taken from article PMC9854712 (Antioxidants, 2023).

The subject of test [1] is HT-29 cells. Description: MTT cell viability assay, HT-29. The following applies: 48 h; for viability at 10 µM: Homo sapiens, HT-29, 10 µM, read-out: Cell growth % at 10 µM, HT-29. Format: cell-based. Here is the method: (§1) The cell lines were obtained from the American Type Culture Collection (ATCC). Five tumor cell lines (MDA-MB-231, MCF-7, HCT116, HTB-54, and DU-145) and two non-tumorigenic cells (184B5 and BEAS-2B) were grown in RPMI 1640 medium (Gibco), and the HT-29 tumor cell line was grown in McCoy’s medium. Both mediums were supplemented with 10% fetal bovine serum (FBS; Gibco) and 1% antibiotics (10.00 units/mL penicillin and 10.00 μg/mL streptomycin; Gibco). Cells were preserved in tissue culture flasks at 37 °C and 5% CO2. The culture medium was replaced every three days.
(§2) The effect of each compound on cell viability was tested using the MTT assay. […] Selected compounds were then tested at seven different concentrations (0.5–100 μM) in MCF-7, HCT116, HT-29, HTB-54, 184B5 and BEAS-2B cells. Cells were seeded at 10^4 per well onto flat-bottomed 96-well culture plates. They were treated with either DMSO or increasing concentration of the corresponding compound for 48 h. Then, they were incubated with 20 μL of 3-(4,5-dimethylthiazol-2-yl)-2,5-diphenyltetrazolium bromide (MTT) (2 mg /mL stock; Aldrich) for 2,5 h and analyzed for their ability to generate a purple formazan dye. These formazan crystals were dissolved in 50 μL of DMSO. The absorbance was measured at a wavelength of 550 nm and the ratio of viable cells was calculated.
(§3) Results are expressed as cell viability % at 10 μM. Selectivity index were calculated as the ratio of the IC50 values determined for the non-malignant and the tumor cells in breast (IC50 (184B5)/IC50 (MCF-7)) and lung (IC50 (BEAS-2B)/IC50 (HTB-54)) cell lines. Data were obtained from at least three independent experiments performed in triplicates.

In test [2] the test system is MDA-MB-231 cells. Put plainly: MTT cell viability assay, MDA-MB-231. Format: cell-based. The conditions noted are these: for viability at 10 µM: Homo sapiens, MDA-MB-231, 48 h, read-out: Cell growth % at 10 µM, MDA-MB-231. As to the method: as §1, §2, §3
(Formazan colour is commonly taken as a measure of viable cells.)

For test [3], the system named is DU-145 cells. Description: MTT cell viability assay, DU-145. The following applies: for viability at 10 µM: Homo sapiens, DU-145, 48 h, read-out: Cell growth % at 10 µM, DU-145. Format: cell-based. Here is the method:
as §1, §2, §3

In test [4] the test system is HTB-54 cells. Description: MTT cell viability assay, HTB-54. Format: cell-based. The following applies: 10 µM, 48 h, MTT; for viability at 10 µM: HTB-54, read-out: Cell growth % at 10 µM, HTB-54. As to the method:
as §1, §2, §3

Test [5] addresses T1, AChE (Rattus norvegicus, UniProt P37136).
T1 construct: from tissue; host or cells: frontal cortex of male Wistar rats (crude homogenate)
T1 sequence (P37136 32-614): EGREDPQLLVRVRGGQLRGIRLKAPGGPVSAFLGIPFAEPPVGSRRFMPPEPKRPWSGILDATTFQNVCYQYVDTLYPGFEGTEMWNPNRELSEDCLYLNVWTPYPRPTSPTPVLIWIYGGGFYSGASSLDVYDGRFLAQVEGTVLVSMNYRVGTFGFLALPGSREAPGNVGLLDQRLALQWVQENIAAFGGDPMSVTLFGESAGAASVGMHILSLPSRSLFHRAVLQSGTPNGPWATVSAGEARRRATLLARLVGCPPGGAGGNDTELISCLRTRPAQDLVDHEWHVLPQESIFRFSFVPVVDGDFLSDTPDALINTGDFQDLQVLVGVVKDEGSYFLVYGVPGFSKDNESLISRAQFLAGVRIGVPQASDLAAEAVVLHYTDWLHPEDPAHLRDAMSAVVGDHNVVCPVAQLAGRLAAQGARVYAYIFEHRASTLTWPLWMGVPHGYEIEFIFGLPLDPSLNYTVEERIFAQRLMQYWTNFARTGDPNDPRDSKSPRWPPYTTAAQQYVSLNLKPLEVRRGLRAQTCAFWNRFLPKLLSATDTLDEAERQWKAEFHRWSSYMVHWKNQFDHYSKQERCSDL
Description: AChE inhibition by Ellman's method (rat frontal cortex homogenate). The following applies: at 10^−6 M, Ellman's method. The class given is biochemical. Here is the method: Frontal cortex tissue obtained from male Wistar rats was homogenized in 39 volumes of 75 mM sodium phosphate buffer (pH 7.4). A mixture of 260 μL containing the compounds assessed, acetylthiocholine iodide and 5 μL tissue homogenate was incubated for 8 min. The reaction was then terminated by adding 50 μL 3% (w/v) sodium dodecyl sulphate followed by 50 μL 0.2% (w/v) 5,5′-dithio-bis(2-nitrobenzoic) acid to produce the yellow anion of 5-thio-2-nitro-benzoic-acid. The extent of the color production was measured spectrophotometrically at 405 nm using Multiskan Ex (Thermo Electron Corporation). […] Results are expressed as the mean ± SD and each experiment was repeated three times.
(In Ellman's method for cholinesterases, released thiocholine reacts with DTNB.)

Usually inhibition stands for the relative decrease from the control value, in per cent. A high value points to a response far below the control.

As to `C=CC[Se]C(=O)c1ccc2c(c1)OCO2` [Compound 4a, Se-allyl benzodioxole-5-carboselenoate], the viability at 10 µM in test [1] was 33.6 ± 12.6%; in test [2], 97.3 ± 10.4%; in test [3], above 100%; in test [4] it was 67.6 ± 15.1%. In addition, testing at 1 µM in test [5] gave an inhibition of 2.5 ± 9.3%.

With “Se-prop-2-ynyl 3a,7a-dihydrobenzo[d][1,3]dioxole-5-carboselenoate [Compound 4b]”, the “Cell growth % at 10 µM, HT-29” value in test [1] (10 µM) came out at 50.6 ± 7.8%. Moreover, the “Cell growth % at 10 µM, MDA-MB-231” value in test [2] (48 h) came out at 62.6 ± 7.4%. For the same molecule, in test [3] (48 h), the “Cell growth % at 10 µM, DU-145” value is 19.7 ± 2.2%. The “Cell growth % at 10 µM, HTB-54” value in test [4] worked out at 57.8 ± 8.1%. Also, the “% AChE Inhibition” value in test [5] is 16.5 ± 10.6%.

In the case of `C#CC[Se]C(=O)c1ccccc1Nc1cccc(C)c1C` [Compound 18b, Se-prop-2-ynyl 2-(2,3-dimethylphenyl)aminobenzoselenoate], the viability at 10 µM is 66.5 ± 9.5% in test [1], 99 ± 11.2% in test [2], 32.6 ± 4.6% in test [3] and 62.3 ± 8.3% in test [4]. Besides, the inhibition at 1 µM in test [5] was 20 ± 2.4%.

Consider `C#CC[Se]C(=O)c1cccs1` [Compound 9b, Se-prop-2-ynyl thiophene-2-carboselenoate], for which the viability at 10 µM in test [1] was 76 ± 13.5%; in test [2], 70.2 ± 6.9%; in test [3], 22.3 ± 2.7%; in test [4], 58.9 ± 7.8%. Besides, the inhibition at 1 µM in test [5] was 20.6 ± 2.7%.

With `C#CC[Se]C(=O)c1ccccc1O` [Compound 13b, Se-prop-2-ynyl 2-hydroxybenzoselenoate], the viability at 10 µM stood at 70.2 ± 13.2% in test [1], 52.3 ± 7.9% in test [2], 26.8 ± 5.5% in test [3] and 82.1 ± 7.6% in test [4]. For the same molecule, the inhibition at 1 µM in test [5] worked out at 21.5 ± 9.5%.

With `C=CC[Se]C(=O)/C=C/c1ccccc1` [Compound 5a, Se-allyl 3-phenylprop-2E-eneselenoate], the viability at 10 µM turned out to be 87.6 ± 7.9% in test [1], 91.1 ± 16.8% in test [2], 83.3 ± 7.8% in test [3] and 46.1 ± 5.6% in test [4]. In test [5], this molecule had an inhibition at 1 µM of 8.7 ± 4.9%.

`C=CC[Se]C(=O)c1ccccc1Cl` [Compound 3a, Se-allyl 2-chlorobenzoselenoate]: the viability at 10 µM in test [1] was 63.2 ± 16.9%; in test [2] it was 29.7 ± 6.4%; in test [3], 39.8 ± 6.3%; in test [4], 37.5 ± 7.3%. For the same molecule, the inhibition at 1 µM in test [5] amounted to 21.5 ± 7.5%.

As for `C=CC[Se]C(=O)c1ccccc1Nc1cccc(C(F)(F)F)c1` [Compound 19a, Se-allyl 2-(3-trifluoromethylphenyl)aminobenzoselenoate], the viability at 10 µM in test [1] is 46 ± 8.7%; in test [2], 81.6 ± 9.7%; in test [3], 17 ± 2.9%; in test [4], 16.3 ± 7.6%. This molecule also registered an inhibition at 1 µM in test [5] of 19.3 ± 2%.

Regarding `C#CC[Se]C(=O)C(C)c1ccc(CC(C)C)cc1` (stereo not drawn) [Compound 15b, Se-prop-2-ynyl 2-(4-isobutylphenyl)propaneselenoate], the viability at 10 µM turned out to be 59.3 ± 4% in test [1], 59.7 ± 15.7% in test [2], 34.7 ± 6.3% in test [3] and 95.6 ± 5.7% in test [4]. Further, at 1 µM the inhibition in test [5] was 8.5 ± 11.1%.

On to `C=CC[Se]C(=O)CCc1ccccc1` [Compound 6a, Se-allyl 3-phenylpropaneselenoate], for which the viability at 10 µM was found to be 63.7 ± 12.3% in test [1], 35.9 ± 2.6% in test [2], 26.9 ± 4.4% in test [3] and 36.3 ± 7% in test [4]. In addition, at 1 µM the inhibition in test [5] was 18.7 ± 12.4%.

Regarding `C#CC[Se]C(=O)CCc1ccccc1` [Compound 6b, Se-prop-2-ynyl 3-phenylpropaneselenoate], the viability at 10 µM in test [2] stood at 78.9 ± 8.4%; in test [3], 76.6 ± 12%; in test [4], 83.4 ± 7.7%. The molecule also registered an inhibition at 1 µM in test [5] of 24.5 ± 6.7%.

For `C#CC[Se]C(=O)c1ccco1` [Compound 11b, Se-prop-2-ynyl furan-2-carboselenoate], the viability at 10 µM in test [1] was above 100%; in test [2] it was 99 ± 11.2%; in test [3], 70 ± 4.5%; in test [4], 75.4 ± 15.5%. The molecule also registered an inhibition at 1 µM in test [5] of 27.2 ± 4.1%.

`C#CC[Se]C(=O)c1ccccc1OC(C)=O` [Compound 14b, 2-(prop-2-ynylselanyl)carbonylphenylacetate]: the viability at 10 µM in test [1] came to 65.6 ± 7.3%; in test [2], 52.3 ± 7.1%; in test [3], 25.5 ± 6.2%; in test [4], 78.9 ± 9%. Moreover, the inhibition at 1 µM in test [5] worked out at 21.1 ± 5.2%.

With `C#CC[Se]C(=O)[C@@H](C)c1ccc2cc(OC)ccc2c1` [Compound 16b, Se-prop-2-ynyl (S)-2-(6-methoxynaphthalen-2-yl)propaneselenoate], the viability at 10 µM in test [1] was 65.7 ± 10%; in test [2] it was 29.8 ± 9.6%; in test [3], 66.4 ± 4.4%; in test [4], above 100%. In test [5], this molecule gave an inhibition at 1 µM of 16.2 ± 2.3%.

As for `C#CC[Se]C(=O)C12CC3CC(CC(C3)C1)C2` [Compound 1b, Se-prop-2-ynyl adamantane-1-carboselenoate], the viability at 10 µM in test [1] was found to be 87.9 ± 12.1%; in test [2], 71.3 ± 8%; in test [3], 62.7 ± 7.7%; in test [4] it was 86 ± 11.6%. For the same molecule, testing at 1 µM in test [5] gave an inhibition of 18 ± 7.9%.

On to `C=CC[Se]C(=O)c1cccs1` [Compound 9a, Se-allyl thiophene-2-carboselenoate], for which the viability at 10 µM turned out to be 99.5 ± 8.3% in test [1], 89.4 ± 4.9% in test [2], 48.6 ± 6.2% in test [3] and 64.8 ± 8.5% in test [4]. Further, the inhibition at 1 µM in test [5] came to 25.9 ± 2.4%.

`C#CC[Se]C(=O)c1cccnc1Cl` [Compound 8b, Se-prop-2-ynyl 2-chloropyridine-3-carboselenoate]: the viability at 10 µM came out at 87.7 ± 10.1% in test [1], 92.9 ± 16.5% in test [2], 77.1 ± 13.9% in test [3] and 99.4 ± 16.2% in test [4]. The molecule further came in with an inhibition at 1 µM in test [5] of 17.1 ± 10.1%.

For `C#CC[Se]C(=O)/C=C/c1ccccc1` [Compound 5b, Se-prop-2-ynyl 3-phenylprop-2E-eneselenoate], the viability at 10 µM came out at 80.8 ± 8.5% in test [1], 64.8 ± 14.7% in test [2], 70.5 ± 11.5% in test [3] and 79.8 ± 7.7% in test [4]. For the same molecule, in test [5], the inhibition at 1 µM was determined as 26 ± 3.7%.

On to `C#CC[Se]C(=O)c1ccccc1Nc1cccc(C(F)(F)F)c1` [Compound 19b], for which the viability at 10 µM in test [1] came out at 61.6 ± 9.8%; in test [2], 92.8 ± 10.2%; in test [3] it was 25.2 ± 2.2%; in test [4] it was 43.6 ± 18.4%. For the same molecule, the inhibition at 1 µM in test [5] amounted to 21.1 ± 2.6%.

Turning to `C=CC[Se]C(=O)c1ccno1` [Compound 12a, Se-allyl isoxazole-5-carboselenoate], the viability at 10 µM in test [1] worked out at 70.7 ± 10.7%; in test [2], 96.8 ± 15.8%; in test [3], 62.7 ± 4.7%; in test [4], 95.5 ± 5.9%. In addition, the inhibition at 1 µM in test [5] came out at 4.2 ± 6.7%.
